Laboratory results published in ChEMBL document CHEMBL5352429, “Designed symmetrical β-hairpin peptides for treating multidrug-resistant salmonella typhimurium infections” (Eur J Med Chem, 2022).
≈ marks a conversion by molar mass, not a printed value. Calls of active or inactive are those of the source. No cut-off for these calls is given here. Peptide text beside a SMILES is read from it.

Tests used:
Staphylococcus aureus [1] = test: Antibacterial activity against Staphylococcus aureus ATCC 29213 incubated overnight by standard microtiter dilution method; type: functional
Staphylococcus aureus [2] = test: Antibacterial activity against methicillin-resistant Staphylococcus aureus ATCC 43300 incubated overnight by standard microtiter dilution method; type: functional
[3] = test system: Staphylococcus epidermidis; test: Antibacterial activity against methicillin-resistant Staphylococcus epidermidis ATCC 12228 incubated overnight by standard microtiter dilution method; type: functional
Enterococcus faecalis = test: Antibacterial activity against Enterococcus faecalis ATCC 29212 incubated overnight by standard microtiter dilution method; type: functional
Escherichia coli = test: Antibacterial activity against Escherichia coli O157:H7 CICC 21530 incubated overnight by standard microtiter dilution method; type: functional
Salmonella paratyphi = test: Antibacterial activity against Salmonella paratyphi A CICC 21501 incubated overnight by standard microtiter dilution method; type: functional, Salmonella enterica subsp. enterica serovar Paratyphi A; conditions: Salmonella enterica
[4] = test system: Salmonella enterica subsp. enterica serovar Paratyphi B; test: Antibacterial activity against Salmonella paratyphi B CICC 21495 incubated overnight by standard microtiter dilution method; type: functional
[5] = Antibacterial activity against Salmonella paratyphi C CICC 21512 incubated overnight by standard microtiter dilution method; type: functional, Salmonella enterica subsp. enterica serovar Paratyphi C; conditions: Salmonella enterica
[6] = Antibacterial activity against Salmonella enterica subsp. enterica serovar Choleraesuis ATCC 13312 incubated overnight by standard microtiter dilution method; type: functional
[7] = Antibacterial activity against Salmonella enterica subsp. enterica serovar Choleraesuis CICC 21493 incubated overnight by standard microtiter dilution method; type: functional
Salmonella enteritidis = test: Antibacterial activity against Salmonella enteritidis CICC 21527 incubated overnight by standard microtiter dilution method; type: functional, Salmonella enterica subsp. enterica serovar Enteritidis; conditions: Salmonella enterica
[8] = Antibacterial activity against Salmonella wandsworth CICC 21504 incubated overnight by standard microtiter dilution method; type: functional, Salmonella enterica subsp. enterica serovar Wandsworth; conditions: Salmonella enterica
Salmonella typhimurium [9] = test: Antibacterial activity against Salmonella typhimurium CICC 21483 incubated overnight by standard microtiter dilution method; type: functional, Salmonella enterica subsp. enterica serovar Typhimurium; conditions: Salmonella enterica
Salmonella typhimurium [10] = test: Antibacterial activity against Salmonella typhimurium CICC 21913 incubated overnight by standard microtiter dilution method; type: functional, Salmonella enterica subsp. enterica serovar Typhimurium; conditions: Salmonella enterica
[11] = Antibacterial activity against Salmonella blockley CICC 21489 incubated overnight by standard microtiter dilution method; type: functional, Salmonella enterica subsp. enterica serovar Blockley; conditions: Salmonella enterica
[12] = Antibacterial activity against Salmonella dublin CICC 21497 incubated overnight by standard microtiter dilution method; type: functional, Salmonella enterica subsp. enterica serovar Dublin; conditions: Salmonella enterica
Salmonella typhimurium [13] = test: Antibacterial activity against Salmonella typhimurium DT104 ATCC 700408 incubated overnight by standard microtiter dilution method; type: functional, Salmonella enterica subsp. enterica serovar Typhimurium; conditions: Salmonella enterica
Candida albicans = test: Antifungal activity against Candida albicans ATCC 10231 incubated overnight by standard microtiter dilution method; type: functional
Erythrocyte = test: Hemolytic activity in human Red blood cells assessed as hemolysis incubated for 1 hrs by absorbance based microplate reader analysis; type: toxicity, cell-based
Salmonella typhimurium [14] = test: Antibacterial activity against Salmonella typhimurium DT104 in the presence of NaCl by MH broth based assay; type: functional, Salmonella enterica subsp. enterica serovar Typhimurium; conditions: Salmonella enterica
Salmonella typhimurium [15] = test: Antibacterial activity against Salmonella typhimurium DT104 in the presence of KCl by MH broth based assay; type: functional, Salmonella enterica subsp. enterica serovar Typhimurium; conditions: Salmonella enterica
Salmonella typhimurium [16] = test: Antibacterial activity against Salmonella typhimurium DT104 in the presence of NH4Cl by MH broth based assay; type: functional, Salmonella enterica subsp. enterica serovar Typhimurium; conditions: Salmonella enterica
Salmonella typhimurium [17] = test: Antibacterial activity against Salmonella typhimurium DT104 in the presence of CaCl2 by MH broth based assay; type: functional, Salmonella enterica subsp. enterica serovar Typhimurium; conditions: Salmonella enterica
Salmonella typhimurium [18] = test: Antibacterial activity against Salmonella typhimurium DT104 in the presence of MgCl2 by MH broth based assay; type: functional, Salmonella enterica subsp. enterica serovar Typhimurium; conditions: Salmonella enterica
Salmonella typhimurium [19] = test: Antibacterial activity against Salmonella typhimurium DT104 in the presence of FeCl3 by MH broth based assay; type: functional, Salmonella enterica subsp. enterica serovar Typhimurium; conditions: Salmonella enterica
Salmonella typhimurium [20] = test: Antibacterial activity against Salmonella typhimurium DT104 in the presence 25% inactivated mouse serum by MH broth based assay; type: functional, Salmonella enterica subsp. enterica serovar Typhimurium; conditions: Salmonella enterica
Salmonella typhimurium [21] = test: Antibacterial activity against Salmonella typhimurium DT104 in the presence 50% inactivated mouse serum by MH broth based assay; type: functional, Salmonella enterica subsp. enterica serovar Typhimurium; conditions: Salmonella enterica
[22] = Hemolytic activity in human Red blood cells assessed as hemolysis at 128 ug/ml incubated for 1 hrs by absorbance based microplate reader analysis relative to control; type: toxicity, cell-based, Erythrocyte; conditions: red blood cells (erythrocytes), at 128 µg/mL, read-out: Activity
Salmonella typhimurium [23] = test: Antibacterial activity against multi-drug resistant Salmonella typhimurium DT104 assessed as inhibition of bacterial growth at 0.5 to 2 times of MIC by MH agar based serial dilution method; type: functional, organism-based; conditions: Salmonella enterica subsp. enterica serovar Typhimurium, time <= 120.0 min, TDE = time-dependent effect
Salmonella typhimurium [24] = test: Antibacterial activity against multi-drug resistant Salmonella typhimurium DT104 assessed as inhibition of bacterial growth measured upto 120 mins by MH agar based serial dilution method; type: functional, organism-based; conditions: Salmonella enterica subsp. enterica serovar Typhimurium
Salmonella typhimurium [25] = test: Antibacterial activity against Salmonella typhimurium DT104 infected in mouse RAW264.7 cells assessed as reduction in bacterial cells at 1 times of MIC measured for 180 mins by MH agar based serial dilution method; type: functional, organism-based; conditions: Salmonella enterica subsp. enterica serovar Typhimurium
[26] = Cytotoxicity against mouse RAW264.7 cells infected with Salmonella typhimurium DT104 assessed as cell viability at 1 times of MIC measured at 180 min by MTT assay; type: toxicity, cell-based; conditions: RAW264.7 cells infected with Salmonella typhimurium DT104, read-out: Activity
Lipopolysaccharide (LPS) = test: Displacement of BODIPY-TR-cadaverine from Salmonella typhimurium LPS assessed as increase in fluorescence intensity by fluorescence spectrophotometric analysis; conditions: Salmonella enterica subsp. enterica serovar Typhimurium; dose 0.25-8 µg/ml
RAW264.7 [27] = test: Inhibition of LPS-stimulated NO production in mouse RAW264.7 cells incubated for 24 hrs by Griess reagent based analysis; type: functional, cell-based; conditions: dose 1-128 µg/ml
RAW264.7 [28] = test: Inhibition of LPS-stimulated TNF-alpha production in mouse RAW264.7 cells at 1 to 128 ug/ml incubated for 24 hrs by ELISA analysis; type: functional, cell-based; conditions: dose 1-128 µg/ml
RAW264.7 [29] = test: Inhibition of LPS-stimulated IL-1beta production in mouse RAW264.7 cells at 1 to 128 ug/ml incubated for 24 hrs by ELISA analysis; type: functional, cell-based; conditions: dose 1-128 µg/ml
RAW264.7 [30] = test: Inhibition of LPS-stimulated IL-8 production in mouse RAW264.7 cells at 1 to 128 ug/ml incubated for 24 hrs by ELISA analysis; type: functional, cell-based; conditions: dose 1-128 µg/ml
Cell membrane [31] = test: Induction of cytoplasmic membrane depolarization in Salmonella typhimurium DT104 assessed as increase in fluorescence intensity at 2 times of MIC incubated for 15 mins by DiSC3-5 dye based fluorescence method; type: subcellular; conditions: Salmonella enterica subsp. enterica serovar Typhimurium
Cell membrane [32] = test: Disruption of membrane integrity in Salmonella typhimurium DT104 assessed as increase in fluorescence intensity at 0.5 to 2 times of MIC incubated for 15 mins by PI staining based flow cytometric analysis; type: subcellular; conditions: Salmonella enterica subsp. enterica serovar Typhimurium
[33] = Cytotoxicity against mouse RAW264.7 cells assessed as cell viability at 128 ug/ml incubated for 24 hrs by MTT assay; type: toxicity, cell-based; conditions: at 128 µg/mL, read-out: Activity

| Compound | MIC (Staphylococcus aureus [1]) | MIC (Staphylococcus aureus [2]) | MIC [3] | MIC (Enterococcus faecalis) | MIC (Escherichia coli) | MIC (Salmonella paratyphi) | MIC [4] | MIC [5] | MIC [6] | MIC [7] | MIC (Salmonella enteritidis) | MIC [8] | MIC (Salmonella typhimurium [9]) | MIC (Salmonella typhimurium [10]) | MIC [11] | MIC [12] | MIC (Salmonella typhimurium [13]) | MIC (Candida albicans) | MHC (Erythrocyte) | MIC (Salmonella typhimurium [14]) | also measured |
| --- | --- | --- | --- | --- | --- | --- | --- | --- | --- | --- | --- | --- | --- | --- | --- | --- | --- | --- | --- | --- | --- |
| CC(C)C[C@H](NC(=O)[C@H](CCCCN)NC(=O)[C@H](CC(C)C)NC(=O)[C@H](CCCCN)NC(=O)[C@H](CS)NC(=O)CNC(=O)[C@H](CO)NC(=O)[C@H](CCCCN)NC(=O)[C@@H](NC(=O)[C@H](CS)NC(=O)[C@H](CCCCN)NC(=O)[C@H](CC(C)C)NC(=O)[C@H](CCCCN)NC(=O)[C@@H](N)CC(C)C)[C@@H](C)O)C(N)=O (H-LKLKCTKSGCKLKL-NH2) | 32 µg/mL (≈ 20.5 µM) | 16 µg/mL (≈ 10.2 µM) | 8 µg/mL (≈ 5.12 µM) | 32 µg/mL (≈ 20.5 µM) | 2 µg/mL (≈ 1.28 µM) | 4 µg/mL (≈ 2.56 µM) | 2 µg/mL (≈ 1.28 µM) | 2 µg/mL (≈ 1.28 µM) | 1 µg/mL (≈ 0.64 µM) | 16 µg/mL (≈ 10.2 µM) | 16 µg/mL (≈ 10.2 µM) | 16 µg/mL (≈ 10.2 µM) | 16 µg/mL (≈ 10.2 µM) | 64 µg/mL (≈ 41 µM) | 32 µg/mL (≈ 20.5 µM) | 8 µg/mL (≈ 5.12 µM) | 32 µg/mL (≈ 20.5 µM) | 4 µg/mL (≈ 2.56 µM) | > 128 µg/mL | 32 µg/mL | MIC (Salmonella typhimurium [15]): 16 µg/mL; MIC (Salmonella typhimurium [16]): 16 µg/mL; MIC (Salmonella typhimurium [17]): 64 µg/mL; MIC (Salmonella typhimurium [18]): 32 µg/mL; MIC (Salmonella typhimurium [19]): 128 µg/mL; MIC (Salmonella typhimurium [20]): 64 µg/mL (≈ 41 µM); MIC (Salmonella typhimurium [21]): 64 µg/mL (≈ 41 µM); hemolysis at 1 h, 128 ug/ml [22]: < 10%; Activity (Salmonella typhimurium [23]): Tde; Activity (Salmonella typhimurium [24]): Dose-Dependent Effect; Activity (Salmonella typhimurium [25]): Active; viability at 3 h, 1 times of MIC [26]: > 90%; Activity (Lipopolysaccharide (LPS)): Dose-Dependent Effect; inhibition (RAW264.7 [27]): Dose-Dependent Effect; inhibition (RAW264.7 [28]): Active; inhibition (RAW264.7 [29]): Active; inhibition (RAW264.7 [30]): Active; Activity (Cell membrane [31]): Active; Activity (Cell membrane [32]): Active |
| C[C@@H](O)[C@H](NC(=O)[C@H](CS)NC(=O)[C@H](CCCCN)NC(=O)[C@H](Cc1c[nH]c2ccccc12)NC(=O)[C@H](CCCCN)NC(=O)[C@H](Cc1c[nH]c2ccccc12)NC(=O)[C@H](CCCCN)NC(=O)[C@@H](N)Cc1c[nH]c2ccccc12)C(=O)N[C@@H](CCCCN)C(=O)N[C@@H](CO)C(=O)NCC(=O)N[C@@H](CS)C(=O)N[C@@H](CCCCN)C(=O)N[C@@H](Cc1c[nH]c2ccccc12)C(=O)N[C@@H](CCCCN)C(=O)N[C@@H](Cc1c[nH]c2ccccc12)C(=O)N[C@@H](CCCCN)C(=O)N[C@@H](Cc1c[nH]c2ccccc12)C(N)=O (H-WKWKWKCTKSGCKWKWKW-NH2) | 4 µg/mL (≈ 1.61 µM) | 4 µg/mL (≈ 1.61 µM) | 4 µg/mL (≈ 1.61 µM) | 2 µg/mL (≈ 0.805 µM) | 4 µg/mL (≈ 1.61 µM) | 4 µg/mL (≈ 1.61 µM) | 1 µg/mL (≈ 0.403 µM) | 4 µg/mL (≈ 1.61 µM) | 0.5 µg/mL (≈ 0.201 µM) | 16 µg/mL (≈ 6.44 µM) | 16 µg/mL (≈ 6.44 µM) | 4 µg/mL (≈ 1.61 µM) | 32 µg/mL (≈ 12.9 µM) | 4 µg/mL (≈ 1.61 µM) | > 128 µg/mL | 8 µg/mL (≈ 3.22 µM) | 32 µg/mL (≈ 12.9 µM) | 32 µg/mL (≈ 12.9 µM) | 32 µg/mL | > 128 µg/mL | MIC (Salmonella typhimurium [15]): > 128 µg/mL; MIC (Salmonella typhimurium [16]): > 128 µg/mL; MIC (Salmonella typhimurium [17]): > 128 µg/mL; MIC (Salmonella typhimurium [18]): > 128 µg/mL; MIC (Salmonella typhimurium [19]): > 128 µg/mL; MIC (Salmonella typhimurium [20]): 64 µg/mL (≈ 25.8 µM); MIC (Salmonella typhimurium [21]): 128 µg/mL (≈ 51.5 µM); hemolysis at 1 h, 128 ug/ml [22]: 30.8%; viability at 24 h, 128 ug/ml [33]: 36.6%; Activity (Salmonella typhimurium [23]): Tde; Activity (Salmonella typhimurium [24]): Dose-Dependent Effect; Activity (Lipopolysaccharide (LPS)): Dose-Dependent Effect; inhibition (RAW264.7 [27]): Dose-Dependent Effect; inhibition (RAW264.7 [28]): Active; inhibition (RAW264.7 [29]): Active; inhibition (RAW264.7 [30]): Active; Activity (Cell membrane [32]): Active |
